Measurements as given in ChEMBL document CHEMBL1201862, “PubChem BioAssay data set” (2004).
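96-well plates; 48 h exposure; 5 concentrations. Endpoints by linear interpolation between flanking doses. Not reached: highest tested concentration assigned. GI50 = concentration required for 50% inhibition of growth.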 Calls of active or inactive are those of the source. Rule as the data show it: active = GI50 up to about 1.1 µM and inactive = higher.

Assays:
Experiment in all cases: inhibition of tumour cell growth, NCI panel, 48 h
[1] = tested on: RXF 393
[2] = tested on: A549
[3] = tested on: UACC-257
[4] = tested on: Malme-3M
[5] = tested on: A498
[6] = tested on: MOLT-4
[7] = tested on: RPMI-8226
[8] = tested on: SK-MEL-28
[9] = tested on: MDA-N
[10] = tested on: TK-10
[11] = tested on: MCF7
[12] = tested on: U-251
[13] = tested on: T47D
[14] = tested on: SF-539
[15] = tested on: UACC-62
[16] = tested on: MDA-MB-231
[17] = tested on: CAKI-1
[18] = tested on: NCI/ADR-RES
[19] = tested on: HCT-116
[20] = tested on: M14

Measured: GI50

COc1ccc(-c2cc(-c3ccccc3)n(C3OCC(OC(C)=O)C(OC(C)=O)C3OC(C)=O)c(=S)c2C#N)cc1 (stereo not given)
inactive: [1] 37.5 µM | [2] > 100 µM | [3] > 100 µM | [4] > 100 µM | [5] 72.9 µM | [6] > 100 µM | [7] > 100 µM | [8] > 100 µM | [9] 54.5 µM | [10] 63 µM | [11] > 100 µM | [12] > 100 µM | [13] 78.7 µM | [14] > 100 µM | [15] 53 µM | [16] > 100 µM | [17] 67.5 µM | [18] > 100 µM | [19] 86.5 µM | [20] > 100 µM

CC(=O)OC(CC(C)C)P1(=O)N(CC(C)(C)C)[C@@H]2CCCC[C@H]2N1CC(C)(C)C (stereo not given in full)
inactive: [1] 6.38 µM | [2] 5.42 µM | [3] 8.41 µM | [4] 9.33 µM | [5] 7.06 µM | [6] 9.62 µM | [7] 4.01 µM | [8] 14.2 µM | [9] 8.26 µM | [10] 11.7 µM | [11] 6.35 µM | [12] 7.08 µM | [13] 5.36 µM | [14] 10.5 µM | [15] 10.1 µM | [16] 7.24 µM | [17] 12.7 µM | [18] 8.3 µM | [19] 5.24 µM | [20] 7.4 µM

CCOC(=O)c1sc2nc(SC)nc(Nc3ccc4c(c3)OCCO4)c2c1N
inactive: [1] 3.93 µM | [2] 10 µM | [3] 21.7 µM | [4] 12 µM | [5] 11.9 µM | [6] 8.05 µM | [7] 12.6 µM | [8] > 100 µM | [9] 10.4 µM | [10] 15.2 µM | [11] 10.5 µM | [12] 5.87 µM | [13] 6.34 µM | [14] 7.52 µM | [15] 11.4 µM | [16] 11.1 µM | [17] 22.9 µM | [18] 21.6 µM | [19] 6.3 µM | [20] 11 µM
